Where two headings read alike, the source gives them in different places.
Legend:
fetal rat pituicytes = experiment: Rat pituicyte GH suppression assay; type: cell-based; conditions: Table 3; suppression compared to vehicle
Excerpt: (§1) Two different assays for “classical” sstr2 functions were adopted: (1) cultured foetal rat pituitary cells secreted growth hormone which is inhibited by sstr2 agonists in a dose-dependent fashion and (2) selected glucose-sensitive sub-clones of the human Panc-1 cell line secrete insulin which is inhibited by sstr2 agonists in a dose-dependent fashion.
Methods: Cultures of fetal rat pituicytes were established exactly as previously described (Murray et al. (2004) J. Clin. Endocrinol. Metab. 89:3027-32) by enzymatic dispersion. After 48 hrs in low glucose DMEM plus 10% FCS, cells in 48 well plates (5×10^4 cells per well) were washed for 4 hrs in serum-free DMEM and then incubated with test agents at various concentrations for a further 24 hrs in serum-free DMEM. At the end of this period, the conditioned medium was harvested, any cell debris removed by centrifugation and assayed for […] using a commercially available ELISA (Linco; cat# EZRMGH-45K) in accordance with the manufacturer's instructions.
(§2) Results were reported as the mean SD, expressed as the fold change from cells in the presence of vehicle only.

Panc-2H4 cells = experiment: Human Panc-2H4 insulin suppression assay; type: cell-based; conditions: for Human Panc-2H4 insulin suppression assay Max effect: suppression compared to vehicle
Excerpt: as §1
Glucose-sensitive sub-clones of the human Panc-1, a cell line derived from a pleiomorphic epithelioid carcinoma of the exocrine pancreas, were obtained essentially as described by Hamil et al. (2008) Biomed. Sci. Instrum. 44:441-6. Briefly, Panc-1 cells were subcultured in 24 well plates, and the medium was supplemented with an additional 5% glucose. […] The resulting sub-lines were then tested for glucose sensitivity by preparing wells of a 96-well plate (5×10^4 cells per well) which were then exposed to cultured medium containing a range of glucose concentrations (low glucose DMEM, DMEM, DMEM+1% glucose, DMEM+2.5% glucose and DMEM+5% glucose). After 24 hrs incubation, the conditioned medium was collected and assayed for insulin secretion by ELISA (Linco; cat# EZHI-14K) in accordance with the manufacturer's instructions. […] Further 96 well plates were prepared using Panc-2H4 (5×10^4 cells per well) in DMEM. After 24 hrs, the medium was switched to DMEM+5% glucose containing various test agents at various concentrations (triplicate wells per condition). After a further 24 hrs, the conditioned medium was harvested and the concentration of insulin was determined by ELISA as described above.
as §2

THP-1 cells = experiment: MCP-1 induced THP-1 cell migration (Transwell/ChemoTx); conditions: for “Classical”:“BSCI” potency ratio, Human: THP-1 migration ED50 versus Panc-2H4 insulin ED50; for RATIO: Table 4, migration ED50 versus insulin ED50
Experimental: Leukocyte migration was measured using the 96-well format micro Transwell® assay system from Neuroprobe (Gaithersburg, Md., USA). In principle, this assay consists of two chambers separated by a porous membrane. The chemoattractant is placed in the lower compartment and the cells are placed in the upper compartment.
First, the cell suspension to be placed in the upper compartment was prepared. The THP-1 cells were pelleted by centrifugation (770×g; 4 mins) and washed with Geys Balanced Salt Solution with 1 mg/ml BSA (GBSS+BSA). This wash was then repeated, and the cells re-pelleted before being resuspended in a small volume of GBSS+BSA for counting, for example using a standard haemocytometer.
This ensured that there were 100,000 THP-1 cells in each 25 μl of the solution to be placed in the upper chamber of the plate.
To the third pot, GBSS+BSA plus vehicle as appropriate was added so that the volumes in three pots are equal, acting as a control.
Next, the chemoattractant solution to be placed in the lower compartment was prepared. […] This solution was divided into three pots, as for the cell suspension. To one pot, the BSCI was added to the same final concentration as was added to the cell suspension, in the second pot the BSCI and the sstr2 antagonist were both added at the same concentration as previously added to the cell suspension, while to the remaining pot GBSS+BSA plus vehicle as appropriate was added so that the volumes in the three pots were equal.
Once the chemoattractant solutions for the lower wells and cell solutions for the upper chambers were prepared, the migration chamber was assembled. 29 μl of the appropriate chemoattractant solution was placed into the lower well of the chamber. Assays were performed with at least triplicate determinations of each condition. Once all the lower chambers were filled, the porous membrane was applied to the chamber in accordance with the manufacturer's instructions. Finally, 25 μl of the appropriate cell solution was applied to each upper chamber. A plastic lid was placed over the entire apparatus to prevent evaporation.
The assembled chamber was incubated at 37° C., 5% CO2, for 2 hours.
At the end of the incubation, the liquid cell suspension was gently removed from the upper chamber, 20 μl of ice-cold 20 mM EDTA in PBS was added to the upper chamber, and the apparatus was incubated at 4° C. for 15 mins. This procedure caused any cells adhering to the underside of the membrane to fall into the lower chamber.
After this incubation the filter was carefully flushed with GBSS+BSA to wash off the EDTA, and then the filter was removed.
The number of cells migrated into the lower chamber under each condition can then be determined by a number of methods, including direct counting, labelling with fluorescent or radioactive markers or through the use of a vital dye. Typically, we utilised the vital dye MTT. 3 μl of stock MTT solution were added to each well, and then the plate was incubated at 37° C. for 1-2 hours during which time dehydrogenase enzymes within the cells converted the soluble MTT to an insoluble blue formazan product that could be quantified spectrophotometrically.
In parallel, an 8-point standard curve was set up. Starting with the number of cells added to each upper chamber (100,000) and going down in 2-fold serial dilutions in GBSS+BSA, the cells were added to a plate in 25 with 3 μl of MTT stock solution added. The standard curve plate was incubated along side the migration plate. At the end of this incubation, the liquid was carefully removed from the lower chambers, taking care not to disturb the precipitated formazan product.
The MCP-1 stimulated migration was determined by subtracting the average number of cells that reached the lower compartment in wells where no MCP-1 was added from the average number of cells that reached the lower compartment where MCP-1 was present at 25 ng/ml.

sstr2 = target: T1, sstr2 (Homo sapiens, UniProt P30874); experiment: [3H]-BN83250 equilibrium binding to THP-1 cells (Scatchard/competition)
T1 construct: with 1×10^6 THP-1 cells in Gey's Balanced Salt Solution, 10 nM [^3H]-BN83250; endogenous in cells; host or cells: THP-1 cells (intact cells, 4 °C)
T1 sequence (P30874 whole entry): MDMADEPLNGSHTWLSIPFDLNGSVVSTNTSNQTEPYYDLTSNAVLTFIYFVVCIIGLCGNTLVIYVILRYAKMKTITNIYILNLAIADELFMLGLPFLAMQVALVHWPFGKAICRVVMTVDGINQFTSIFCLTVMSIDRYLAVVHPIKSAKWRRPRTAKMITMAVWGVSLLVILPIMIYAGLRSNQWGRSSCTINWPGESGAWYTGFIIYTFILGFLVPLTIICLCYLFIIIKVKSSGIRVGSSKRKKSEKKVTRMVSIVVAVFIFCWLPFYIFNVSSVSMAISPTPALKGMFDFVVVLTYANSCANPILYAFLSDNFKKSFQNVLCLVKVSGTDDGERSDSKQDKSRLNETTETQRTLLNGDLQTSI
Experimental: Methods: [^3H]-BN83250 was synthesesized from (S,E)-3-(2′,2′-dimethyldodec-4′-enoylamino)-caprolactam by catalytic hydrogenation using tritium gas over a palladium catalyst (CRB Ltd, Cleveland, UK), yielding the tritiated product at a concentration of 270 μM in ethanol with a specific activity of 220Ci/mmol. The (S,E)-3-(2′,2′-dimethyldodec-4′-enoylamino)-caprolactam was prepared as follows: (S,S)-3-amino-caprolactam hydro-pyrrolidine-5-carboxylate (10 mmol) and Na2CO3 (30 mmol) in water (30 ml) were added to a solution of 2,2-dimethyl-dodec-4-enoyl chloride (10 mmol) in dichloromethane (30 ml) at ambient temperature and the reaction was stirred for 12 hours. The organic layer was then separated and the aqueous phase was extracted with additional dichloromethane (2×25 ml). The combined organic layers were dried over Na2CO3 and reduced in vacuo. The residue was purified by silica column chromatography (1:1 EtOAc:hexanes to EtOAc) to give (S,E)-3-(2′,2′-dimethyl-dodec-4′-enoyl)amino-caprolactam as a colourless oil (2.12 g, 63%). The radiolabelled compound was stored in the dark at 4° C. until required. Prior to use the specific activity was adjusted by addition of unlabelled BN83250.
For the analysis of binding, individual reactions were set up (in triplicate for each condition), with 1×10^6 THP-1 cells in Gey's Balanced Salt Solution, 10 nM [^3H]-BN83250 (at 50 Ci/mmol) and various concentrations of (S)-3(2′2′-dimethylpropionoylamino)-tetrahydropyridin-2-one (10 pM to 10 μM). Excess (100 μM) unlabelled BN83250 was used to determine the level of non-specific binding. After 2 hours at 4° C. (conditions previously shown to achieve equilibrium binding, and which prevent uptake of the radioligand that would result in an over-estimate of binding) excess label was washed away by centrifugation (3 washes with 5 ml of Gey's Balanced Salt Solution) and the bound radioactivity was determined by scintillation counting of the solubilised cell pellet.
Hits from this assay were confirmed using conventional Scatchard analysis, exactly as described in Example 4 above.

[1] = target: type 2 somatostatin receptor (sstr2), human (human) (UniProt P30874); experiment: cell-based or functional assay
Sequence of type 2 somatostatin receptor (sstr2), human (human) (P30874 whole entry): as above

[2] = target: type 2 somatostatin receptor (sstr2), rat (rat) (UniProt P30680); experiment: cell-based or functional assay
Sequence of type 2 somatostatin receptor (sstr2), rat (rat) (P30680 whole entry): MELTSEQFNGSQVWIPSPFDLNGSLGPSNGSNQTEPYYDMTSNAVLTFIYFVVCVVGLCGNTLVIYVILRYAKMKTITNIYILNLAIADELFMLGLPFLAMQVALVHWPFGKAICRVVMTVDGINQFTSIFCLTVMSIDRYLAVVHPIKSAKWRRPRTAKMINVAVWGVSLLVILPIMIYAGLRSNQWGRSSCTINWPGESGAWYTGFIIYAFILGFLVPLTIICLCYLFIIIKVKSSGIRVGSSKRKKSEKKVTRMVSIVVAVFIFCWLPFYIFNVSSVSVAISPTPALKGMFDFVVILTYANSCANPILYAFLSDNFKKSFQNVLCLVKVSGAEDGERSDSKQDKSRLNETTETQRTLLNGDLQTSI

TNF-alpha = experiment: Sub-lethal endotoxemia model, serum TNF-alpha after LPS; type: in vivo, mouse; conditions: very high / highest doses, 2 hours post LPS
Experimental: We selected the sub-lethal endotoxemia model in mouse, because this has been well characterised in our laboratory (see for example Fox et al. (2002) J. Med. Chem. 45:360-70; Fox et al. (2005) J. Med. Chem. 48:867-74). The extent of systemic inflammation in response to a single intraperitoneal injection of bacterial lipopolysaccharide (LPS) can be estimated by measuring serum TNF-alpha 2 hours post challenge.
Methods: Mice (CD1 strain; adult males; 6 per group) were treated with BSCI (in an appropriate vehicle) or with vehicle alone by an appropriate route. […] Simultaneously, one set of mice at each BSCI concentration received BIM 23627 at 4 mg/animal (120 mg/kg) by sub-cutaneous injection (a treatment condition known to suppress classical sstr2-mediated signalling, such as GH release, in rats; Tulipano et al. (2002) 143:1218-24). Between 30 mins and 1 hour after dosing (a period when a maximal plasma concentration of BSCI has been achieved), the inflammatory challenge was elicited by intraperitoneal injection of 750 μg of LPS (Sigma; L4130 lot#024K4077; 900,000 EU/mg).
After a further 2 hours, the animals were sacrificed by CO2 asphyxiation, and blood was drawn by cardiac puncture. Serum was prepared by conventional methods, and the level of TNF-alpha in serum was measured using an ELISA (R&D Systems; Murine Quantikine code# MTA00) performed in accordance with the manufacturer's instructions.

[3] = test system: rat peripheral blood leukocytes; experiment: Rat chemokine-induced PBMC migration assay; type: cell-based
Experimental: Similarly, where human Panc-2H4 cells are used to determine the effect of agents on classical sstr2 targets, the result is compared with the effect of the same agents on chemokine-induced migration of human THP-1 cells. […] For this reason, the ratio of “classical” to “BSCI” activity in Table 3 is calculated separately for rat and human.

[4] = Table 4, 0.01-1,000 nM, 1% DMSO, read-out: Panc-2H4 insulin suppression assay (“classical” target) ED50

## C[C@@H](c1c[nH]c2ccccc12)[C@@H](NC(=O)N1CCC(n2c(=O)[nH]c3ccccc32)CC1)C(=O)NC[C@@H]1CCC[C@H](CN)C1 [L-779,976]
Fetal rat pituicytes
  Rat pituicyte GH suppression assay Max effect: 55%
Panc-2H4 cells; Table 3
  Human Panc-2H4 insulin suppression assay Max effect: 40%
Panc-2H4 cells; Table 4
  Panc-2H4 insulin suppression assay Max Effect: 40%
Panc-2H4 cells; Table 5
  Panc-2H4 insulin suppression assay Max Effect: 40%
THP-1 cells
  “Classical”:“BSCI” potency ratio, Human: 27

## NCC1CCCC(CNC(=O)C(Cc2ccccc2)NC(=O)N2CCC(n3c(=O)[nH]c4ccccc43)CC2)C1 (stereo not shown) [F]
Panc-2H4 cells; Table 4
  Panc-2H4 insulin suppression assay Max Effect: <10%
Panc-2H4 cells; [4]
  EC50: > 1000 nM

## CC1(C(=O)N[C@H]2CCCCNC2=O)CCCCC1 [(S)-3-(1′-methylcyclohexyl-1′-carbonylamino)-caprolactam]
sstr2
  competition with BN83250 binding to sstr2: compete with BN83250 binding to sstr2 to a similar extent

## CC(c1c[nH]c2ccccc12)C(NC(=O)NC1CCCNC1=O)C(=O)NCC1CCCC(CN)C1 (stereo not shown) [Compound C]
Panc-2H4 cells; Table 4
  Panc-2H4 insulin suppression assay Max Effect: 56%
THP-1 cells
  RATIO: 0.02

## somatostatin-28 (from UniProt P61278 89-116) (peptide)
[1]
  Human Panc-2H4 insulin suppression assay ED50: 0.14 nM
  Human Panc-2H4 insulin suppression assay Max effect: 51%
  Human chemokine-induced THP-1 migration assay ED50: 0.9 nM
  Human chemokine-induced THP-1 migration assay Max effect: 38%
[2]
  Rat chemokine-induced PBMC migration assay ED50: 1.2 nM
  Rat chemokine-induced PBMC migration assay Max effect: 44%
  Rat pituicyte GH suppression assay ED50: 0.17 nM
  Rat pituicyte GH suppression assay Max effect: 73%

## CC(C)(C)C(=O)N[C@H]1CCCNC1=O
sstr2; competition with [3H]-BN83250
  Hill Slope: approximately −1.0

## C[C@@H]1C[C@H]2[C@@H]3CCC4=CC(=O)C=C[C@]4(C)[C@@]3(F)[C@@H](O)C[C@]2(C)[C@@]1(O)C(=O)CO [dexamethasone]
TNF-alpha
  inhibition of serum TNF-alpha: more than 90%

## CC(c1c[nH]c2ccccc12)C(NC(=O)N1CC(=O)NC(=O)C1)C(=O)NCC1CCCC(CN)C1 (stereo not shown) [Compound B]
Panc-2H4 cells; Table 4
  Panc-2H4 insulin suppression assay Max Effect: 52%
THP-1 cells
  RATIO: 1.3

## CC(=O)NC(CC(N)=O)C(=O)NC(C(=O)NCC1CCCC(CN)C1)C(C)c1c[nH]c2ccccc12 (mixture of isomers) [D]
Panc-2H4 cells; Table 4
  Panc-2H4 insulin suppression assay Max Effect: 37%

## O=C1NCCCC[C@@H]1NC(=O)C12CC3CC(CC(C3)C1)C2 [BN83470, (S)-3-(admantane-1′-carbonylamino)-caprolactam]
Fetal rat pituicytes
  Rat pituicyte GH suppression assay Max effect: 56%
Panc-2H4 cells; Table 3, read-out: Human Panc-2H4 insulin suppression assay ED50
  EC50: > 1000 nM
Panc-2H4 cells; Table 3
  Human Panc-2H4 insulin suppression assay Max effect: <10%
Panc-2H4 cells; highest concentrations tested
  inhibition of insulin secretion by Panc-2H4: None of these agents inhibited insulin secretion
[3]; PBMC migration ED50 versus pituicyte GH ED50
  “Classical”:“BSCI” potency ratio, Rat: 0.0008
[3]; Table 3
  Rat chemokine-induced PBMC migration assay Max effect: 100%
sstr2
  competition with BN83250 binding to sstr2: compete with BN83250 binding to sstr2 to a similar extent
THP-1 cells
  “Classical”:“BSCI” potency ratio, Human: <0.00008
THP-1 cells; Table 3
  Human chemokine-induced THP-1 migration assay Max effect: 100%

## CC(=O)NC(=O)C(NC(=O)N1CCC(n2c(=O)[nH]c3ccccc32)CC1)C(C)c1c[nH]c2ccccc12 (stereo not shown) [E]
Panc-2H4 cells; Table 4
  Panc-2H4 insulin suppression assay Max Effect: <10%
Panc-2H4 cells; [4]
  EC50: > 1000 nM

## SST-28: alternatively processed sst28 natural ligand
THP-1 cells; Table 2, at the highest dose tested (1-10 μM)
  Max effect (maximum inhibition): 40-60%

## BIM58187 (peptide)
[1]
  Human Panc-2H4 insulin suppression assay ED50: > 1000 nM
  Human Panc-2H4 insulin suppression assay Max effect: < 10%
  Human chemokine-induced THP-1 migration assay ED50: 6.9 nM
  Human chemokine-induced THP-1 migration assay Max effect: 100%
[2]
  Rat chemokine-induced PBMC migration assay ED50: 15 nM
  Rat chemokine-induced PBMC migration assay Max effect: 100%
  Rat pituicyte GH suppression assay ED50: 550 nM
  Rat pituicyte GH suppression assay Max effect: 42%
